From ChEMBL document CHEMBL1142557, “Novel bioactive sulfated alkene and alkanes from the mediterranean ascidian Halocynthia papillosa” (J Nat Prod, 2000)
Converted amounts (≈) assume the structure as drawn. The source made the active and inactive calls. No cut-off for these calls is given here.

Legend:
[1] = system: WEHI-164; experiment: Cytotoxicity against mouse WEHI164 cells assessed as cell viability after 96 hrs by MTT assay; format: functional, cell-based; settings: WEHI-164, 96 h
[2] = system: C6; experiment: Cytotoxicity against rat C6 cells assessed as cell viability after 96 hrs by MTT assay; format: functional, cell-based; settings: for IC50: C6, 96 h

Question: Which results are given for `Sc1ncnc2nc[nH]c12` [MERCAPTOPURINE ANHYDROUS]?
Answer: IC50 [1]: 1.3 µg/mL (≈ 8.54 µM); IC50 [2]: 30.2 µg/mL (≈ 198 µM)

Question: `CC(C)CCC[C@@H](C)COS(=O)(=O)O` was tested. Which IC50 [1] did it give?
Answer: 20.9 µg/mL (≈ 93.2 µM)

Question: And the Activity [2]?
Answer: inactive

Question: What does the source list for `CC(C)CCCCCOS(=O)(=O)O`?
Answer: IC50 [1]: 15 µg/mL (≈ 71.3 µM); IC50 [2]: 545 µg/mL (≈ 2590 µM)

Question: Which IC50 [1] does the source give for `CCC=CCCCCOS(=O)(=O)O` here?
Answer: 12.2 µg/mL (≈ 58.6 µM)

Question: What about the IC50 [2] of the same molecule?
Answer: 515 µg/mL (≈ 2470 µM)
